What was measured:
TeFum [1] = molecular target: T1, TeFum (Thermosynechococcus vestitus, UniProt Q8DIP7); assay: A240 absorbance, Michaelis-Menten fit; type: biochemical; parameters: gene fumC; N-terminal GST tag (pGEX6P-1, BamHI-XhoI) kept; codon-optimized synthetic gene; E. coli BL21(DE3); glutathione-Sepharose purified; conditions: fumarate hydration; 100 mM Tris-HCl pH 7.0; 50 °C
CmFUM = molecular target: T2, CmFUM (Cyanidioschyzon merolae, UniProt M1VAI8); assay: A240 absorbance, Michaelis-Menten fit; type: biochemical; conditions: fumarate hydration; 100 mM Tris-HCl pH 7.5; 52 °C
T2 construct: gene CYME_CMD058C; N-terminal GST tag (pGEX6P-1, BamHI-XhoI) kept; codon-optimized synthetic gene; E. coli BL21(DE3); glutathione-Sepharose purified
T2 sequence (M1VAI8 1-553): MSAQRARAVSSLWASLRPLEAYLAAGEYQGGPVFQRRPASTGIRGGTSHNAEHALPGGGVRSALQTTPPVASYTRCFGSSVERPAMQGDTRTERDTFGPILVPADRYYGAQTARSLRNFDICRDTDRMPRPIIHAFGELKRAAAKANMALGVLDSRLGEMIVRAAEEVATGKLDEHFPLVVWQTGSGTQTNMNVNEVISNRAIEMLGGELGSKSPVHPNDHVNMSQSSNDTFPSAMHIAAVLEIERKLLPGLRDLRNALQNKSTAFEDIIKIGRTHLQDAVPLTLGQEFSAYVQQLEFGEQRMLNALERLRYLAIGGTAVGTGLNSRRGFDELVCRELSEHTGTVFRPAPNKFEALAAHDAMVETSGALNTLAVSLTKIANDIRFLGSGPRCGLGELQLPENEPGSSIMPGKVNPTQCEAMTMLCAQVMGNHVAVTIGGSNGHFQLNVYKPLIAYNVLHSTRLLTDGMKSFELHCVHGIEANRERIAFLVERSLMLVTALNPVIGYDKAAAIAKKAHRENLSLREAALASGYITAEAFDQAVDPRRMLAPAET

TeFum [2] = molecular target: T1, TeFum; assay: relative activity with effector, A240 absorbance; parameters: gene fumC; conditions: activator in the fumarate direction; 0.14 mM fumarate, pH 7.0, 50 °C; sodium salt

T1 sequence (Q8DIP7 whole entry): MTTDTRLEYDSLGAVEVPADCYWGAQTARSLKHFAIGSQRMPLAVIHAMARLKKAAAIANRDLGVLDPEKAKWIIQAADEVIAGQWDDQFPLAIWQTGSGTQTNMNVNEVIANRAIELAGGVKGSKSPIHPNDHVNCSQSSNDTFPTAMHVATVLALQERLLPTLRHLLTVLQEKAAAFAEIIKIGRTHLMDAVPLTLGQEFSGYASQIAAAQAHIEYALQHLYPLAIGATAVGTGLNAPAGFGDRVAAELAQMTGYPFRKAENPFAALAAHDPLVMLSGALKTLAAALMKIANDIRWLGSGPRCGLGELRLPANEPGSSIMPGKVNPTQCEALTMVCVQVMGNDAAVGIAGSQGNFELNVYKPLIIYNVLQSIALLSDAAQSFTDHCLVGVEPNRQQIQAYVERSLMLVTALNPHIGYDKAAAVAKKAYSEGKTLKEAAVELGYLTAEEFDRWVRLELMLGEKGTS

| Km (TeFum [1]) [µM] | Km (CmFUM) [µM] | SMILES | relative activity (TeFum [2]) |
| --- | --- | --- | --- |
| 140 ± 20 | 270 ± 50 | O=C(O)/C=C/C(=O)O [fumarate] |  |
|  |  | CC(=O)C(=O)O [pyruvate] | pyruvate increased the TeFum activity for fumarate (Figure 4B). |
